The target in this test is ATX (human His-tagged) (Homo sapiens (Human), UniProt Q13822). Kind of test: Human ATX enzyme inhibition assay (fluorescence quenching, MR121 substrate). The class given is biochemical. To be noted: 30 nM ATX, 1 μM MR121 substrate, 30° C., pH 8.0. As to the method: Human ATX Enzyme Inhibition Assay
ATX inhibition was measured by a fluorescence quenching assay using a specifically labeled substrate analogue (MR121 substrate). To obtain this MR121 substrate, BOC and TBS protected 6-amino-hexanoic acid (R)-3-({2-[3-(2-{2-[2-(2-amino-ethoxy)-ethoxy]-ethoxy}-ethoxy)-propionylamino]-ethoxy}-hydroxy-phosphoryloxy)-2-hydroxy-propyl ester (Ferguson et al., Org Lett 2006, 8 (10), 2023) was labeled with MR121 fluorophore (CAS 185308-24-1, 1-(3-carboxypropyl)-11-ethyl-1,2,3,4,8,9,10,11-octahydro-dipyrido[3,2-b:2′,3′-i]phenoxazin-13-ium) on the free amine of the ethanolamine side and then, after deprotection, subsequently with tryptophan on the side of the aminohexanoic acid.
Assay working solutions were made as follows:
Assay buffer (50 mM Tris-HCl, 140 mM NaCl, 5 mM KCl, 1 mM CaCl2, 1 mM MgCl2, 0.01% Triton-X-100, pH 8.0;
ATX solution: ATX (human His-tagged) stock solution (1.08 mg/mL in 20 mM bicine, pH 8.5, 0.15 M NaCl, 10% glycerol, 0.3% CHAPS, 0.02% NaN3), diluted to 1.4-2.5× final concentration in assay buffer;
MR121 substrate solution: MR121 substrate stock solution (800 μM MR121 substrate in DMSO), diluted to 2-5× final concentration in assay buffer.
Test compounds (10 mM stock in DMSO, 8 μL) were obtained in 384 well sample plates (Corning Costar #3655) and diluted with 8 μL DMSO. Row-wise serial dilutions were made by transferring 8 μL cpd solution to the next row up to row O. The compound and control solutions were mixed five times and 2 μL were transferred to 384 well assay plates (Corning Costar #3702). Then, 15 μL of 41.7 nM ATX solution was added (30 nM final concentration), mixed five times and then incubated for 15 minutes at 30° C. 10 μL of MR121 substrate solution was added (1 μM final concentration), mixed 30 times and then incubated for 15 minutes at 30′C.

The term IC50 denotes the concentration at which inhibition is half-maximal. Read a low IC50 as greater potency. In turn, `O=C(/C=C/c1ccc(OC(F)(F)F)cc1)N1C[C@@H]2[C@H](C1)[C@H]1CN(C(=O)c3ccc4[nH]nnc4c3)C[C@@H]21` [Example 1.003, (E)-1-[(3aS,3bR,6aS,6bR)-5-(1H-benzotriazole-5-carbonyl)-octahydro-cyclobuta[1,2-c;3,4-c′]dipyrrol-2-yl]-3-(4-trifluoromethoxy-phenyl)-propenone] returned a concentration for half-maximal inhibition (IC50) of 8.5 nM.

For `COCCOc1cc(C(=O)N2C[C@@H]3[C@H]4CN(C(=O)c5ccc6[nH]nnc6c5)C[C@H]4[C@@H]3C2)nc2ccccc12` [Example 1.069, [(3aR,3bS,6aR,6bS)-5-(1H-benzotriazole-5-carbonyl)-octahydro-cyclobuta[1,2-c;3,4-c′]dipyrrol-2-yl]-[4-(2-methoxy-ethoxy)-quinolin-2-yl]-methanone], the IC50 was 8 nM.

As to `O=C(c1ccc2[nH]nnc2c1)N1C[C@@H]2[C@H](C1)[C@H]1CN(C(=O)c3cc4cc(OC(F)(F)F)ccc4[nH]3)C[C@@H]21` [Example 1.010, [(3aR,3bS,6aR,6bS)-5-(1H-benzotriazole-5-carbonyl)-octahydro-cyclobuta[1,2-c;3,4-c′]dipyrrol-2-yl]-(5-trifluoromethoxy-1H-indol-2-yl)-methanone], the IC50 is 16 nM.

Take `O=C(c1cnc(OCC(F)(F)F)c(C(F)(F)F)c1)N1C[C@@H]2[C@H](C1)[C@H]1CN(C(=O)c3ccc4[nH]nnc4c3)C[C@@H]21` [Example 1.105, (1H-benzotriazol-5-yl)-{(3aS,3bS,6aR,6bR)-5-[6-(2,2,2-trifluoro-ethoxy)-5-trifluoromethyl-pyridine-3-carbonyl]-octahydro-cyclobuta[1,2-c;3,4-c′]dipyrrol-2-yl}-methanone]: the IC50 came to 8 nM.

`CCOc1cc(C(=O)N2C[C@@H]3[C@H]4CN(C(=O)c5ccc6[nH]nnc6c5)C[C@H]4[C@@H]3C2)nc2cc(Cl)ccc12` [Example 1.076, [(3aR,3bS,6aR,6bS)-5-(1H-benzotriazole-5-carbonyl)-octahydro-cyclobuta [1,2-c;3,4-c′]dipyrrol-2-yl]-(7-chloro-4-ethoxy-quinolin-2-yl)-methanone]: the IC50 worked out at 12.5 nM.

The molecule `CC(C)Oc1cc(C(=O)N2C[C@@H]3[C@H](C2)[C@H]2CN(C(=O)c4ccc5[nH]nnc5c4)C[C@@H]32)cc2ccccc12` [Example 1.052, [(3aS,3bS,6aR,6bR)-5-(1H-benzotriazole-5-carbonyl)-octahydro-cyclobuta[1,2-c;3,4-c′]dipyrrol-2-yl]-(4-isopropoxy-naphthalen-2-yl)-methanone] had a concentration for half-maximal inhibition (IC50) of 3.5 nM.

Molecule `O=C(c1ccc(-c2ccc(Cl)cc2)nc1)N1C[C@@H]2[C@H](C1)[C@H]1CN(C(=O)c3ccc4[nH]nnc4c3)C[C@@H]21` [Example 1.045, [(3aS,3bS,6aR,6bR)-5-(1H-benzotriazole-5-carbonyl)-octahydro-cyclobuta[1,2-c;3,4-c′]dipyrrol-2-yl]-[6-(4-chloro-phenyl)-pyridin-3-yl]-methanone] registered an IC50 of 11 nM.

In turn, `O=C(c1ccc2[nH]nnc2c1)N1C[C@@H]2[C@H](C1)[C@H]1CN(C(=O)c3cc4ccccc4[nH]3)C[C@@H]21` [Example 1.023, [(3aR,3bS,6aR,6bS)-5-(1H-benzotriazole-5-carbonyl)-octahydro-cyclobuta[1,2-c;3,4-c′]dipyrrol-2-yl]-(1H-indol-2-yl)-methanone] returned an IC50 of 1470 nM.

For the molecule `Cn1c(C(=O)N2C[C@@H]3[C@H]4CN(C(=O)c5ccc6[nH]nnc6c5)C[C@H]4[C@@H]3C2)cc2cc(OC(F)(F)F)ccc21` [Example 1.032, [(3aR,3bS,6aR,6bS)-5-(1H-benzotriazole-5-carbonyl)-octahydro-cyclobuta[1,2-c;3,4-c′]dipyrrol-2-yl]-(1-methyl-5-trifluoromethoxy-1H-indol-2-yl)-methanone], the half-inhibitory concentration (IC50) amounted to 13 nM.

Turning to `CC1(C)CC(C(=O)N2C[C@@H]3[C@H]4CN(C(=O)c5ccc6[nH]nnc6c5)C[C@H]4[C@@H]3C2)Cc2ccccc21` (stereo partly drawn) [Example 1.055, [(3aS,3bR,6aS,6bR)-5-(1H-benzotriazole-5-carbonyl)-octahydro-cyclobuta[1,2-c;3,4-c′]dipyrrol-2-yl]-(4,4-dimethyl-1,2,3,4-tetrahydro-naphthalen-2-yl)-methanone], the midpoint of inhibition, the IC50, lay at 22 nM. This IC50 is about 1.7-fold higher than that of the molecule before.

The molecule `O=C(c1ccc2cc(Br)ccc2c1)N1C[C@@H]2[C@H](C1)[C@H]1CN(C(=O)[C@@H]3CCc4[nH]nnc4C3)C[C@@H]21` [Example 1.016, (6-bromo-naphthalen-2-yl)-[(3aR,3bS,6aR,6bS)-5-((R)-4,5,6,7-tetrahydro-1H-benzotriazole-5-carbonyl)-octahydro-cyclobuta[1,2-c;3,4-c′]dipyrrol-2-yl]-methanone] gave an IC50 of 17 nM. This IC50 and that of the molecule before are within 1.5-fold of each other.

As for `O=C(c1ccc2[nH]nnc2c1)N1C[C@@H]2[C@H](C1)[C@H]1CN(C(=O)c3ccc(C4CC4)c(OCC4CC4)n3)C[C@@H]21` [Example 1.087, (1H-benzotriazol-5-yl)-[(3aS,3bR,6aS,6bR)-5-(5-cyclopropyl-6-cyclopropylmethoxy-pyridine-2-carbonyl)-octahydro-cyclobuta[1,2-c;3,4-c′]dipyrrol-2-yl]-methanone], 15.3 nM corresponded to half-maximal inhibition (IC50).

In turn, `Cn1c(C(=O)N2C[C@@H]3[C@H]4CN(C(=O)c5ccc6[nH]nnc6c5)C[C@H]4[C@@H]3C2)cc2ccc(Cl)cc21` [Example 1.034, [(3aR,3bS,6aR,6bS)-5-(1H-benzotriazole-5-carbonyl)-octahydro-cyclobuta[1,2-c;3,4-c′]dipyrrol-2-yl]-(6-chloro-1-methyl-1H-indol-2-yl)-methanone] displayed an IC50 of 489 nM.

Consider `O=C(c1ccc2ccc(-c3ccccc3)cc2c1)N1C[C@@H]2[C@H](C1)[C@H]1CN(C(=O)c3ccc4[nH]nnc4c3)C[C@@H]21` [Example 1.050, [(3aS,3bS,6aR,6bR)-5-(1H-benzotriazole-5-carbonyl)-octahydro-cyclobuta[1,2-c;3,4-c′]dipyrrol-2-yl]-(7-phenyl-naphthalen-2-yl)-methanone], for which half-maximal inhibition (IC50) was put at 8 nM. This IC50 is about 61-fold lower than that of the molecule before.

With `CCOc1cc(C(=O)N2C[C@@H]3[C@H]4CN(C(=O)c5ccc6[nH]nnc6c5)C[C@H]4[C@@H]3C2)cc2c1ccn2CC(F)(F)F` [Example 1.085, (1H-benzotriazol-5-yl)-{(3aS,3bS,6aR,6bR)-5-[4-ethoxy-1-(2,2,2-trifluoro-ethyl)-1H-indole-6-carbonyl]-octahydro-cyclobuta[1,2-c;3,4-c′]dipyrrol-2-yl}-methanone], half-maximal inhibition (IC50) was put at 2.7 nM.

For the molecule `Cc1ccc2cc(C(=O)N3C[C@@H]4[C@H]5CN(C(=O)c6ccc7[nH]nnc7c6)C[C@H]5[C@@H]4C3)[nH]c2c1` [Example 1.035, [(3aR,3bS,6aR,6bS)-5-(1H-benzotriazole-5-carbonyl)-octahydro-cyclobuta[1,2-c;3,4-c′]dipyrrol-2-yl]-(6-methyl-1H-indol-2-yl)-methanone], the midpoint of inhibition, the IC50, lay at 243 nM. This IC50 is about 90-fold higher than that of the molecule before.

On to `O=C(c1cccc(-c2ccc(Cl)cc2)c1)N1C[C@@H]2[C@H](C1)[C@H]1CN(C(=O)c3ccc4[nH]nnc4c3)C[C@@H]21` [Example 1.089, (1H-benzotriazol-5-yl)-[(3aS,3bS,6aR,6bR)-5-(4′-chloro-biphenyl-3-carbonyl)-octahydro-cyclobuta[1,2-c;3,4-c′]dipyrrol-2-yl]-methanone], for which the half-maximal inhibitory concentration (IC50) stood at 20 nM.

Molecule `CC(C)Cn1c(C(=O)N2C[C@@H]3[C@H]4CN(C(=O)c5ccc6[nH]nnc6c5)C[C@H]4[C@@H]3C2)cc2ccccc21` [Example 1.037, [(3aR,3bS,6aR,6bS)-5-(1H-benzotriazole-5-carbonyl)-octahydro-cyclobuta[1,2-c;3,4-c′]dipyrrol-2-yl]-(1-isobutyl-1H-indol-2-yl)-methanone] came in with an IC50 of 159 nM.

Molecule `O=C(c1ccc2[nH]nnc2c1)N1C[C@@H]2[C@H](C1)[C@H]1CN(S(=O)(=O)c3ccc(-c4ccc(F)cc4)cc3)C[C@@H]21` [Example 3, (1H-Benzotriazol-5-yl)-[(3aS,3bR,6aS,6bR)-5-(4′-fluoro-biphenyl-4-sulfonyl)-octahydro-cyclobuta[1,2-c;3,4-c′]dipyrrol-2-yl]-methanone] had an IC50 of 173 nM.

With `O=C(COc1ccc(OC(F)(F)F)cc1)N1C[C@@H]2[C@H](C1)[C@H]1CN(C(=O)c3ccc4[nH]nnc4c3)C[C@@H]21` [Example 1.008, 1-[(3aR,3bS,6aR,6bS)-5-(1H-benzotriazole-5-carbonyl)-octahydro-cyclobuta[1,2-c;3,4-c′]dipyrrol-2-yl]-2-(4-trifluoromethoxy-phenoxy)-ethanone], the IC50 came to 36 nM.
